Results: PubChem BioAssay (NCI)
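Cultured in 96-well plates, cells were exposed to test compound for 48 hours across five concentrations. The concentration for 50% growth inhibition is given as GI50. Definition used: TGI = concentration required for complete inhibition of growth.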

Tests used:
Experiment in all cases: DTP human tumour cell line panel, 48 h
786-0 renal = system: 786-0 renal
A549 NSCLC = system: A549 NSCLC
BT-549 breast = system: BT-549 breast
CAKI-1 renal = system: CAKI-1 renal
COLO 205 colon = system: COLO 205 colon
EKVX NSCLC = system: EKVX NSCLC
HCT-116 colon = system: HCT-116 colon
HL-60(TB) leukemia = system: HL-60(TB) leukemia
HOP-62 NSCLC = system: HOP-62 NSCLC
HOP-92 NSCLC = system: HOP-92 NSCLC
HT29 colon = system: HT29 colon
IGROV1 ovarian = system: IGROV1 ovarian
K-562 leukemia = system: K-562 leukemia
KM12 colon = system: KM12 colon
LOX IMVI melanoma = system: LOX IMVI melanoma
M14 melanoma = system: M14 melanoma
MALME-3M melanoma = system: MALME-3M melanoma
MDA-MB-231 breast = system: MDA-MB-231 breast
MDA-MB-435 = system: MDA-MB-435
MOLT-4 leukemia = system: MOLT-4 leukemia
NCI-H23 lung = system: NCI-H23 lung
NCI-H460 lung = system: NCI-H460 lung
NCI-H522 lung = system: NCI-H522 lung
NCI/ADR-RES ovarian = system: NCI/ADR-RES ovarian
OVCAR-4 ovarian = system: OVCAR-4 ovarian
OVCAR-8 ovarian = system: OVCAR-8 ovarian
PC-3 prostate = system: PC-3 prostate
RPMI-8226 leukemia = system: RPMI-8226 leukemia
RXF 393 renal = system: RXF 393 renal
SF-268 CNS = system: SF-268 CNS
SF-295 CNS = system: SF-295 CNS
SK-MEL-2 melanoma = system: SK-MEL-2 melanoma
SK-MEL-28 melanoma = system: SK-MEL-28 melanoma
SK-MEL-5 melanoma = system: SK-MEL-5 melanoma
SK-OV-3 ovarian = system: SK-OV-3 ovarian
SN12C renal = system: SN12C renal
SNB-19 CNS = system: SNB-19 CNS
SNB-75 CNS = system: SNB-75 CNS
SR leukemia = system: SR leukemia
SW-620 colon = system: SW-620 colon
T-47D breast = system: T-47D breast
TK-10 renal = system: TK-10 renal
U251 CNS = system: U251 CNS
UACC-257 melanoma = system: UACC-257 melanoma
UACC-62 melanoma = system: UACC-62 melanoma
UO-31 renal = system: UO-31 renal

SMILES: COc1cc2c3c(n(CCCN(CCCN(CCCn4c5c(c6ccccc6c4=O)C(=O)c4ccccc4-5)C(=O)OC(C)(C)C)C(=O)OC(C)(C)C)c(=O)c2cc1OC)-c1cc2c(cc1C3=O)OCO2
- GI50 (786-0 renal): > 100 µM
- TGI (786-0 renal): > 100 µM
- GI50 (A549 NSCLC): > 100 µM
- TGI (A549 NSCLC): > 100 µM
- GI50 (BT-549 breast): 34.7 µM
- TGI (BT-549 breast): > 100 µM
- GI50 (CAKI-1 renal): 9.85 µM
- TGI (CAKI-1 renal): > 100 µM
- GI50 (COLO 205 colon): > 100 µM
- TGI (COLO 205 colon): > 100 µM
- GI50 (EKVX NSCLC): 11.8 µM
- TGI (EKVX NSCLC): 34 µM
- GI50 (HCT-116 colon): > 100 µM
- TGI (HCT-116 colon): > 100 µM
- GI50 (HL-60(TB) leukemia): > 100 µM
- TGI (HL-60(TB) leukemia): > 100 µM
- GI50 (HOP-62 NSCLC): > 100 µM
- TGI (HOP-62 NSCLC): > 100 µM
- GI50 (HOP-92 NSCLC): > 100 µM
- TGI (HOP-92 NSCLC): > 100 µM
- GI50 (HT29 colon): > 100 µM
- TGI (HT29 colon): > 100 µM
- GI50 (IGROV1 ovarian): > 100 µM
- TGI (IGROV1 ovarian): > 100 µM
- GI50 (K-562 leukemia): > 100 µM
- TGI (K-562 leukemia): > 100 µM
- GI50 (KM12 colon): > 100 µM
- TGI (KM12 colon): > 100 µM
- GI50 (LOX IMVI melanoma): 26.5 µM
- TGI (LOX IMVI melanoma): > 100 µM
- GI50 (M14 melanoma): > 100 µM
- TGI (M14 melanoma): > 100 µM
- GI50 (MALME-3M melanoma): > 100 µM
- TGI (MALME-3M melanoma): > 100 µM
- GI50 (MDA-MB-231 breast): 28.5 µM
- TGI (MDA-MB-231 breast): > 100 µM
- GI50 (MDA-MB-435): > 100 µM
- TGI (MDA-MB-435): > 100 µM
- GI50 (MOLT-4 leukemia): > 100 µM
- TGI (MOLT-4 leukemia): > 100 µM
- GI50 (NCI-H23 lung): > 100 µM
- TGI (NCI-H23 lung): > 100 µM
- GI50 (NCI-H460 lung): 21.5 µM
- TGI (NCI-H460 lung): > 100 µM
- GI50 (NCI-H522 lung): > 100 µM
- TGI (NCI-H522 lung): > 100 µM
- GI50 (NCI/ADR-RES ovarian): > 100 µM
- TGI (NCI/ADR-RES ovarian): > 100 µM
- GI50 (OVCAR-4 ovarian): > 100 µM
- TGI (OVCAR-4 ovarian): > 100 µM
- GI50 (OVCAR-8 ovarian): > 100 µM
- TGI (OVCAR-8 ovarian): > 100 µM
- GI50 (PC-3 prostate): > 100 µM
- TGI (PC-3 prostate): > 100 µM
- GI50 (RPMI-8226 leukemia): > 100 µM
- TGI (RPMI-8226 leukemia): > 100 µM
- GI50 (RXF 393 renal): > 100 µM
- TGI (RXF 393 renal): > 100 µM
- GI50 (SF-268 CNS): > 100 µM
- TGI (SF-268 CNS): > 100 µM
- GI50 (SF-295 CNS): > 100 µM
- TGI (SF-295 CNS): > 100 µM
- GI50 (SK-MEL-2 melanoma): > 100 µM
- TGI (SK-MEL-2 melanoma): > 100 µM
- GI50 (SK-MEL-28 melanoma): > 100 µM
- TGI (SK-MEL-28 melanoma): > 100 µM
- GI50 (SK-MEL-5 melanoma): > 100 µM
- TGI (SK-MEL-5 melanoma): > 100 µM
- GI50 (SK-OV-3 ovarian): > 100 µM
- TGI (SK-OV-3 ovarian): > 100 µM
- GI50 (SN12C renal): > 100 µM
- TGI (SN12C renal): > 100 µM
- GI50 (SNB-19 CNS): > 100 µM
- TGI (SNB-19 CNS): > 100 µM
- GI50 (SNB-75 CNS): > 100 µM
- TGI (SNB-75 CNS): > 100 µM
- GI50 (SR leukemia): 33.6 µM
- TGI (SR leukemia): > 100 µM
- GI50 (SW-620 colon): > 100 µM
- TGI (SW-620 colon): > 100 µM
- GI50 (T-47D breast): > 100 µM
- TGI (T-47D breast): > 100 µM
- GI50 (TK-10 renal): 50.1 µM
- TGI (TK-10 renal): > 100 µM
- GI50 (U251 CNS): > 100 µM
- TGI (U251 CNS): > 100 µM
- GI50 (UACC-257 melanoma): > 100 µM
- TGI (UACC-257 melanoma): > 100 µM
- GI50 (UACC-62 melanoma): > 100 µM
- TGI (UACC-62 melanoma): > 100 µM
- GI50 (UO-31 renal): > 100 µM
- TGI (UO-31 renal): > 100 µM
